Reference: EP1336412A1, “Combinations of an antibiotic and a murein hydrolase inhibitor” (priority 2002, dated 2003)

Experiments:
[1] = test system: E. coli MHD52 (deletion of AmiABC); assay: Growth of E. coli with inhibited murein septum cleavage (MHD52) after addition of agent; assay type: cell-based, Escherichia coli; settings: LB medium, 37°C, aerobic
Method: (§1) Bacteria were cultivated aerobically at 37° C in LB medium (J.H. Miller, Experiments in Molecular Genetics, Cold Spring Harbor Laboratory, Cold Spring Harbor (1972)). Agar plates contained 1.5 % agar (Gibco BRL, Paisley, Scotland). Growth was monitored by optical density readings at 578 nm in an Eppendorf photometer (Eppendorf, Hamburg, Germany). Antibiotics were used at the following concentrations: 50 (µg/ml ampicillin (amp), 50 (µg/ml kanamycin (kan), 20 (µg/ml chloramphenicol (cm) and 12.5 µg/ml tetracyclin (tet).
(§2) At the indicated time point (arrow) deoxycholate (1 g/l) or crystal violet (1 mg/l), respectively, were added. See the results in Fig. 4 (filled circles: wild type E. coli plus deoxycholate; filled triangles: MHD52 plus crystal violet; filled squares: MHD52 plus deoxycholate). Likewise, the cells were grown in the same manner, but at the indicated time point (arrow) vancomycin (20 µg/ml) was added. See the results in Fig. 5 (open circles: wild type E. coli; filled circles: wild type E. coli plus vancomycin; open squares: MHD52; filled squares: MHD52 plus vancomycin).

[2] = test system: wild-type E. coli MC1061; assay: Growth of wild-type E. coli after addition of agent; assay type: cell-based, Escherichia coli; settings: vancomycin 20 µg/ml; LB medium, 37°C, aerobic; wild type (septum cleavage not inhibited)
Method: as §1, §2

[3] = test system: bacterial cells following the inhibition of the cleavage of the bacterial murein septum; assay: Sensitivity of bacterial cells to detergents and high molecular weight antibiotics after inhibition of murein septum cleavage; assay type: cell-based

Compound	sensitivity of bacterial cells [3]	other results
CN(C)c1ccc(C(=C2C=CC(=[N+](C)C)C=C2)c2ccc(N(C)C)cc2)cc1 [crystal violet]	–	effect on growth (Fig. 4) ([1]; crystal violet 1 mg/l, MHD52): insignificant effect
CN[C@H](CC(C)C)C(=O)N[C@H]1C(=O)N[C@@H](CC(N)=O)C(=O)N[C@H]2C(=O)N[C@H]3C(=O)N[C@H](C(=O)N[C@H](C(=O)O)c4cc(O)cc(O)c4-c4cc3ccc4O)[C@H](O)c3ccc(c(Cl)c3)Oc3cc2cc(c3O[C@@H]2O[C@H](CO)[C@@H](O)[C@H](O)[C@H]2O[C@H]2C[C@](C)(N)[C@H](O)[C@H](C)O2)Oc2ccc(cc2Cl)[C@H]1O [vancomycin]	–	effect on growth (Fig. 5) ([1]; vancomycin 20 µg/ml, MHD52 (septum cleavage inhibited)): growth controlling effect; effect on growth (Fig. 5) [2]: normal growth
Triton X100	significant increase in the sensitivity	–
mersacidin	significant increase in the sensitivity	–
ramoplanin	significant increase in the sensitivity	–
